Consider ten molecules from patent US20240424119A1, “USE OF POLYPEPTIDE IN RESISTANCE TO ADDICTION AND RELAPSE THEREOF, AND COMPLEX AND POLYPEPTIDE” (SHENZHEN CHENYANG BIOLOGICAL TECHNOLOGY CO., LTD, priority 2021, published 2024).

No end group written: not given here.

For test [1], the system named is morphine-induced CPP in mice. Nature of the test: Effects of different polypeptides on morphine-induced CPP in mice. In kind it is in vivo. The note with it: 3 nmol/g i.p. on Day 10, recorded on the second day after administration; TAT fusion peptides; n=12. As to the method: The CPP equipment used in the experiment has two equal-volume chambers (15 cm×15 cm×37 cm) with a movable door in the middle. Mice could freely shuttle between chambers during testing, or were limited to one side of the chamber during training. The interior of one chamber is black and the bottom is striped, while the other chamber is white and the bottom is latticed. All behavioral tests, including distance and time of activity, were recorded by a camera and calculated using the SMART Video Tracking System (Version 2.5; Panlab Technology for Biosearch, Spain).
On Day 1, mice were allowed to explore two chambers freely for 15 min without any treatment (before testing). On Day 2, 4, 6 and 8, control group (saline group) and model group (morphine group) received saline (10 mL/kg) and morphine (10 mg/kg), respectively. TAT group (3 nmol/g) and TAT-D2R-KT group (3 nmol/g) were injected (intraperitoneally, 10 ml/kg body weight) 1 hour before morphine injection. After injection, all mice were trained in the white chamber for 40 min. On Day 3, 5, 7 and 9, all mice were given normal saline, and then immediately placed in the black chamber for 40 min; on Day 10, after all mice explored freely for 15 min, the test ended, and the CPP scores (moving duration of mice) were shown in FIG. 6.
(§1) Then, the C-terminal of Pep1 to Pep5 was fused to the N-terminal of TAT respectively to obtain fusion peptides which could penetrate the blood-brain barrier.
Mice were given morphine (1 mg/kg) or normal saline for 8 days, and different polypeptides (3 nmol/g) of Example 9 were administered to mice via intraperitoneal injection (10 ml/kg) on Day 10; the expression of morphine-induced CPP was recorded according to the CPP experimental method in Example 5 on the second day after administration, and the results were shown in FIG. 17.

In test [2] the test system is cocaine-induced behavioral sensitization in mice. Nature of the test: Effects of different polypeptides on cocaine-induced behavioral sensitization in mice. The format is in vivo. To be noted: 3 nmol/g i.p. 1 hour before cocaine (15 mg/kg) on sixth day of pause; TAT fusion peptides; n=10. The protocol:
as §1
In order to verify that the polypeptide of the invention is also effective against cocaine-induced addiction, the following tests were carried out:
Mice were given cocaine (15 mg/kg) or normal saline and then tested for 30 minutes, repeated for 5 days, and followed by a 5-day pause of administration. On the sixth day of the pause, 1 hour before cocaine administration, different polypeptides of Example 9 (3 nmol/g) were administered to mice via intraperitoneal injection (10 ml/kg) for drug induction, and a testing was carried out, and the results were shown in FIG. 18.

Test [3] has as its system alcohol-induced behavioral sensitization in mice. Nature of the test: Effects of different polypeptides on alcohol-induced behavioral sensitization in mice. The note with it: 3 nmol/g i.p. 1 hour before alcohol (2.2 g/kg) on third day after training; TAT fusion peptides; n=10. In kind it is in vivo. The protocol: as §1
In order to verify that the polypeptide of the invention is also effective against alcohol-induced addiction, the following tests were carried out:
The training period lasted for 10 days, during which mice were administered alcohol (2.2 g/kg) or normal saline every other day and then immediately tested for 15 minutes. On the third day after training, 1 hour before alcohol administration, different polypeptides of Example 9 (3 nmol/g) were administered to mice via intraperitoneal injection (10 ml/kg) for drug induction, and a testing was carried out, and the results were shown in FIG. 19.

For the next test, the target named is T1, D2R/NR2B complex (Mus musculus, UniProt Q01097).
T1 construct: Co-immunoprecipitation was performed using a protein sample (100-500 μg protein) from hippocampus tissue; from tissue; host or cells: hippocampus tissue of CPP and BS mice treated in vivo
Nature of the test: Co-immunoprecipitation of hippocampus tissue from polypeptide-treated CPP mice and BS mice. In kind it is in vivo. As to the method: Co-immunoprecipitation was performed using a protein sample (100-500 μg protein) from hippocampus tissue. NR2B and D1R or D2R were precipitated using an anti-NR2B and D2R, D2R or NR2B and 25 μl protein A/G+agarose bead slurry (SantaCruz Biotechnology, sc-2001), respectively.
The protein was then isolated on 8% SDS-PAGE gel and detected with a mouse antibody against NR2B and D2R. HRP-coupled secondary antibody and enhanced chemiluminescence method were used to detect the protein. Density analysis of bands was performed using image laboratory software.
In order to verify the effect of KT polypeptide of D2R on the D2R/NR2B complex in vivo, the C terminal of the region (K211-T225) was fused to the N terminal of transduction domain of HIV-1-type Tat protein (as set forth in SEQ ID NO: 6, hereinafter referred to as TAT) to obtain a fusion protein which can permeate blood-brain barrier, named TAT-D2R-KT.
CPP mice and BS mice were treated with TAT-D2R-KT respectively, and mice treated with TAT only were used as control (all treated by single intraperitoneal administration, 10 ml/kg body weight, medicament concentration 3 nmol/g). After 1 hour of treatment, analysis was performed according to the co-immunoprecipitation method in Example 1, and the results were shown in FIG. 4.

The target of the next test is T2, NR2B (Mus musculus, UniProt Q01097).
T2 construct: from tissue; host or cells: hippocampus extract
Nature of the test: GST-pulldown of NR2B from hippocampus extract by GST fusion proteins of D2R regions. The note with it: 500 μg hippocampus extract, overnight, 4° C. The format is binding. The protocol: In order to search for the physical interaction site between D2R and NR2B, cDNA fragments of the CT region of D2R (T428-C443) and the third intracellular loop (IL3) region of D2R (K211-Q373) were first obtained via the D2R full-length cDNA clone (Genbank Accession No.: M29066.1). These fragments were subcloned to the BamH1/EcoR1 or BamH1/Xho1 site of a pGEX-4T-3 plasmid (YouBio, Item No: VT1255). Initiation methionine residue and termination codon were added as appropriate. All constructs were resequenced to confirm that splice fusion was achieved appropriately. The GST fusion protein containing the IL3 region of D2R (GST-D2R-IL3) and the GST fusion protein containing the CT region of D2R (GST-D2R-CT) were obtained by using E.coli BL21 viable cells (AlpalifeBio, Item No: KTSM104L) for expression and purifying them from bacterial lysate, wherein the specific positions of the coding sequences of IL3 region and CT region on D2R were shown in FIG. 2.
500 μg of dissolved hippocampus extract was diluted with 1×PBS/0.1% Triton X-100 and incubated overnight with 20 μl protein GST resin (TransGen Biotech, Item No: N21220, Beijing, China) saturated with GST protein only or with the prepared 15 µg GST fusion protein at 4° C. Beads were washed 1-8 times with 1×PBS/0.1% Triton X-100. Binding proteins were eluted with 2×loading buffer, separated by SDS-PAGE, and subjected to Western blot with respective antibodies thereof, and the results were shown in A of FIG. 3.
Next, in order to further explore the interaction sequence/site between D2R and NR2B, the IL3 region was divided into KVC (K211-V270) region of D2R, ES (E271-S321) region of D2R and PQ (P322-Q373) region of D2R.
According to the method in the present Example, a pulldown analysis was performed using a GST fusion protein containing the KVC region of D2R (GST-D2R-KVC), a GST fusion protein containing the ES region of D2R (GST-D2R-ES), and a GST fusion protein containing the PQ region of D2R (GST-D2R-PQ), and the results of Western blot were shown in B of FIG. 3.
Further, the KVC region was divided into KT (K211-T225) region of D2R, KL (K226-L240) region of D2R, KV (K241-V255) region of D2R, and IV (1256-V270) region of D2R.
According to the method in the present Example, a pulldown analysis was performed using a GST fusion protein containing the KT region of D2R (GST-D2R-KT), the GST fusion protein containing the KL region of D2R (GST-D2R-KL), a GST fusion protein containing the KV region of D2R (GST-D2R-KV), and a GST fusion protein containing the IV region of D2R (GST-D2R-IV), and the results of Western blot were shown in C of FIG. 3.

For a further test, the target named is binding of D2R to NR2B (Homo sapiens, UniProt Q13224). To be noted: Liu et al., Neuron 52, 897-909, FIGS. 3M and 3N; cited from earlier work.
Sequence of binding of D2R to NR2B (Q13224 27-1484): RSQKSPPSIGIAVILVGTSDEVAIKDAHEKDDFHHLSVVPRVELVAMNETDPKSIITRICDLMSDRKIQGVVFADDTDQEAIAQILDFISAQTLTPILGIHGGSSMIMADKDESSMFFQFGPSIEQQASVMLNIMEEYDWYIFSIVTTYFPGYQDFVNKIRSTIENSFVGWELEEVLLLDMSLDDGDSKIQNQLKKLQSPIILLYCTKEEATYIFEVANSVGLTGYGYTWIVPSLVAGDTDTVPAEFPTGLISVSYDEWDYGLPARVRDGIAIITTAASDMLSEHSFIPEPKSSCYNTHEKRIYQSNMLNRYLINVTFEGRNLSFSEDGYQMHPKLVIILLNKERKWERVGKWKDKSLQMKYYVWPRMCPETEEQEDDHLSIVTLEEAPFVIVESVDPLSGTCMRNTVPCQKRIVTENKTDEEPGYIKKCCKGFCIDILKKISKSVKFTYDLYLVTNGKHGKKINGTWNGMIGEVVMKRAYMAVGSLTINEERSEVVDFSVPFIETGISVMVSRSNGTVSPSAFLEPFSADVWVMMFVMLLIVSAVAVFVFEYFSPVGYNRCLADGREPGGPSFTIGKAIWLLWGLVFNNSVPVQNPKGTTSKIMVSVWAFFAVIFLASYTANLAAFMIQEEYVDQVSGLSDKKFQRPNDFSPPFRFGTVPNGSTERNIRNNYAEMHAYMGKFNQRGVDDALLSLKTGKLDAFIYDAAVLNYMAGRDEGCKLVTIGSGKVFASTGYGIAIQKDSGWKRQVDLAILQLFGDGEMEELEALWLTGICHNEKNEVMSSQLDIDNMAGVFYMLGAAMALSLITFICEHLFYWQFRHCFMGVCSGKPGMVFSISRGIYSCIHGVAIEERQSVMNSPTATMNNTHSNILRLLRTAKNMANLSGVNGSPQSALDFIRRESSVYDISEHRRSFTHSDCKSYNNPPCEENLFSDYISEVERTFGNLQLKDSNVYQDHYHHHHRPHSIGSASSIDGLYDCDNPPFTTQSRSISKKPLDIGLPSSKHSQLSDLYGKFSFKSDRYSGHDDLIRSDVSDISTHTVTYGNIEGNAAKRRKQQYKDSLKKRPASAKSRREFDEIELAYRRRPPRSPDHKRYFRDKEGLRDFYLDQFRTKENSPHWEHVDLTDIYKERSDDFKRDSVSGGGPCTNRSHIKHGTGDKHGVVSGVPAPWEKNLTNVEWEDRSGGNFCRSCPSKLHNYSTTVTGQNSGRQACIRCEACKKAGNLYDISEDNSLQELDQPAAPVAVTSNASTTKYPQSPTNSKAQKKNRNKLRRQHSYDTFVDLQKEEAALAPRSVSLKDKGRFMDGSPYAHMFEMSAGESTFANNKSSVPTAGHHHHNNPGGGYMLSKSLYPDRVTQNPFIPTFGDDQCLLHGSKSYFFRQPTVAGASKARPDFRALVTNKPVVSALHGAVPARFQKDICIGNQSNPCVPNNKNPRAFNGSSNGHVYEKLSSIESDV

T2 sequence (Q01097 27-1482, other chains not shown): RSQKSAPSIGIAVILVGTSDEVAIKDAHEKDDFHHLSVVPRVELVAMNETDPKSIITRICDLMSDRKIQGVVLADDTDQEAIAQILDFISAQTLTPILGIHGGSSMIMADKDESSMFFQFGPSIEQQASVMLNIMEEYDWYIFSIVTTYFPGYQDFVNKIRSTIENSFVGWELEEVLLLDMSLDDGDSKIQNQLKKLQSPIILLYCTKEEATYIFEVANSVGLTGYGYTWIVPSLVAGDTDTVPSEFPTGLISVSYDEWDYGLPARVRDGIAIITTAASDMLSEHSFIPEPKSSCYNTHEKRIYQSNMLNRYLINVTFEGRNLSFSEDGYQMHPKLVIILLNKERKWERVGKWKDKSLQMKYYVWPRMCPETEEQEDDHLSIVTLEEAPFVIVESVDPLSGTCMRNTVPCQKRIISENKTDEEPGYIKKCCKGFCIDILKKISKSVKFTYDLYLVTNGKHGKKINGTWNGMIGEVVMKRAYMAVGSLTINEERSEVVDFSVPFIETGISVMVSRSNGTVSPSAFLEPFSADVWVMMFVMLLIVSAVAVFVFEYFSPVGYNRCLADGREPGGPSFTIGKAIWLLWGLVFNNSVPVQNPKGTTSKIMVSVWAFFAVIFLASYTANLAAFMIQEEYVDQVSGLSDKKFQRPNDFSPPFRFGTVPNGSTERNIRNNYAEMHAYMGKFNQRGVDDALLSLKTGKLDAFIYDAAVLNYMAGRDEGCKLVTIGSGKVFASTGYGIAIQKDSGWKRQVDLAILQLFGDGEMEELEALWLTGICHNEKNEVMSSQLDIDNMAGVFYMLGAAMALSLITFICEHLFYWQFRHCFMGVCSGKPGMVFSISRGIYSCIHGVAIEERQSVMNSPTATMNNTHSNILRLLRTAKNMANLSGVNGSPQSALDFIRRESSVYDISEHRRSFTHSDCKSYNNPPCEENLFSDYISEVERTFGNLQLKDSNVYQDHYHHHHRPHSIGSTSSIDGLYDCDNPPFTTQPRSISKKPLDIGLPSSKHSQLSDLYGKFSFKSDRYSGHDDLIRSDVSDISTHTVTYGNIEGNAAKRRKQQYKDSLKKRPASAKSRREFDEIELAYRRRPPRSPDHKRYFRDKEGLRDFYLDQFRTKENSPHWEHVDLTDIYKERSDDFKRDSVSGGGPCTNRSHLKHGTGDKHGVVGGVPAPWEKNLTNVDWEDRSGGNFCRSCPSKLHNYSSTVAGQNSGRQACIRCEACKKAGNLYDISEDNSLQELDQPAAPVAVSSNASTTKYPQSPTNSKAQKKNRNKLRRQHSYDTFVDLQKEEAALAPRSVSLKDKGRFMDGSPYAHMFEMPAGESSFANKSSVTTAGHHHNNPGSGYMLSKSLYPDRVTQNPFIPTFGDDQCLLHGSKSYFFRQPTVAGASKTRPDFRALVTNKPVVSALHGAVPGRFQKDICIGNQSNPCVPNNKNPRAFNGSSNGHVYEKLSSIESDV
T1 sequence (Q01097 27-1482, other chains not shown): as above

“KIYIVLGGGRKRVNT [Pep4, variant with the mid-segment RRR mutated to GGG; tested fused to TAT]”: the “activity distance of morphine-CPP mice” value in test [1] was “failed to significantly reduce the activity distance”. The “expression of sensitization behavior (cocaine-induced)” value (from here on “expression … (cocaine-induced)”) in test [2] is reported as “failed to inhibit the expression of sensitization behavior”. Besides, the “expression of sensitization behavior (alcohol-induced)” value (“expression … (alcohol-induced)” for short) in test [3] is “failed to inhibit the expression of sensitization behavior”.

“KIYIVLRRRGGGVNT [Pep5, variant with the mid-segment RKR mutated to GGG; tested fused to TAT]”: in test [1], the “activity distance of morphine-CPP mice” value is “failed to significantly reduce the activity distance”. The “expression … (cocaine-induced)” value in test [2] is recorded as “failed to inhibit the expression of sensitization behavior”. Moreover, the “expression … (alcohol-induced)” value in test [3] is “failed to inhibit the expression of sensitization behavior”.

For “KIYIVLRRRRKRV [Pep3, variant of KT polypeptide, C-terminal truncated; tested fused to TAT]”, the “activity distance of morphine-CPP mice” value in test [1] is “significantly reduced the activity distance”. Further, in test [2], the “expression … (cocaine-induced)” value was “significantly inhibited the expression of sensitization behavior”. The “expression … (alcohol-induced)” value in test [3] is listed as “significantly inhibited the expression of sensitization behavior”.

Regarding “KIYIVLRRRRKRVNT [Pep1, KT polypeptide, K211-T225 of the IL3 region of D2R; tested in vivo fused to TAT]”, the “D2R/NR2B interaction in hippocampus tissue (co-immunoprecipitation)” value with D2R/NR2B complex (CPP mice and BS mice, single intraperitoneal administration 3 nmol/g, 1 hour after treatment, TAT only as control) was “competitively disrupted the D2R/NR2B interaction”. Moreover, the “interaction between D2R and NR2B” value in the test with D2R/NR2B complex (summary statement of the inventors' finding, no conditions given) was “successfully reduced the interaction between D2R and NR2B”. Also, the “activity distance of morphine-CPP mice” value in test [1] is recorded as “significantly reduced the activity distance”. Moreover, the “expression … (cocaine-induced)” value in test [2] is given as “significantly inhibited the expression of sensitization behavior”. Also, the “expression … (alcohol-induced)” value in test [3] is recorded as “significantly inhibited the expression of sensitization behavior”.

As to “KL region of D2R: GST fusion protein containing the KL region of D2R (K226-L240) (KRSSRAFRAHLRAPL; also: GST fusion; UniProt P14416 226-240, looked up, fragment)”, the “precipitation of NR2B by GST fusion protein (pulldown, Western blot)” value (“precipitation of NR2B” for short) with NR2B is recorded as “could not be precipitated”.

For the molecule “KT region of D2R: GST fusion protein containing the KT region of D2R (K211-T225) (KIYIVLRRRRKRVNT; also: GST fusion)”, the “precipitation of NR2B” value in the test with NR2B was “precipitated with affinity”.

In the case of “KVC region of D2R: GST fusion protein containing the KVC region of D2R (K211-V270) (KIYIVLRRRRKRVNTKRSSRAFRAHLRAPLKGNCTHPEDMKLCTVIMKSNGSFPVNRRRV; cysteine pairing not given here; also: GST fusion)”, the “precipitation of NR2B” value with NR2B is listed as “precipitated with affinity”.

Regarding “P4: Liu et al. polypeptide of IL3 from D2R (1210-K226) lacking the motif TKRSSRAFRA (IKIYIVLRRRRKRVNTK; UniProt P14416 210-226, looked up, fragment) [Pep P4]”, the “prevention of the binding of D2R to NR2B” value with binding of D2R to NR2B is on record as “had no preventing effect”.

Consider “YIVLRRRRKRVNT [Pep2, variant of KT polypeptide, N-terminal truncated; tested fused to TAT]”, for which the “activity distance of morphine-CPP mice” value in test [1] was “significantly reduced the activity distance”. Further, the “expression … (cocaine-induced)” value in test [2] is on record as “significantly inhibited the expression of sensitization behavior”. The “expression … (alcohol-induced)” value in test [3] was “significantly inhibited the expression of sensitization behavior”.

B1: IL3 region of D2R: GST fusion protein containing the IL3 region of D2R (K211-Q373) (protein)
chain: KIYIVLRRRRKRVNTKRSSRAFRAHLRAPLKGNCTHPEDMKLCTVIMKSNGSFPVNRRRVEAARRAQELEMEMLSSTSPPERTRYSPIPPSHHQLTLPDPSHHGLHSTPDSPAKPEKNGHAKDHPKIAKIFEIQTMPNGKTRTSLKTMSRRKLSQQKEKKATQ
modifications: left off: a dimerising Fc or GST; large carriers; small tags and cut ends
For B1, in the test with NR2B, the “precipitation of NR2B” value is listed as “precipitated with affinity”.
